Measurements taken from patent US9765035B2 (priority 2013, dated 2017).

Biological target: T1, Human CARM1 (PRMT4) (Homo sapiens, UniProt Q86X55)
T1 construct: Flag-CARM1-His; made in house; host or cells: HEK 293F cells (BacMam baculovirus)
T1 sequence (Q86X55 1-585 isoform Q86X55-1): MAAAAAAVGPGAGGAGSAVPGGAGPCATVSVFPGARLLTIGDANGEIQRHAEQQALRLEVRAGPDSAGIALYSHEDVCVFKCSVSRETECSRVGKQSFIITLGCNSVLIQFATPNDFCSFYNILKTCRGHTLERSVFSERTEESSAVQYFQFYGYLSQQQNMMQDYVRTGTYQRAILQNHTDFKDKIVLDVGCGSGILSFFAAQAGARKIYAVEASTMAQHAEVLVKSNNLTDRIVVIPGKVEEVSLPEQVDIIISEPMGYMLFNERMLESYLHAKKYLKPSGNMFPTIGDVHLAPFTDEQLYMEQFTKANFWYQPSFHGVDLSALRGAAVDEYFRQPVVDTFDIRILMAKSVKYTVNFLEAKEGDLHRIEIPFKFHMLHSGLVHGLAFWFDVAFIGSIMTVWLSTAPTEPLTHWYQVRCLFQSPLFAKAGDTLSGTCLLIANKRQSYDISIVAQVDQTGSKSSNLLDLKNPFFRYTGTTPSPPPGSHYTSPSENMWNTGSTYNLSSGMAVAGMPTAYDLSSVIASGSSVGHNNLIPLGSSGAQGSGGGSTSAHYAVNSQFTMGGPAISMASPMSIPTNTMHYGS
Assay: CARM1 Biochemical Assay
Excerpt: General Materials. S-adenosylmethionine (SAM), S-adenosylhomocysteine (SAH), bicine, Tween20, dimethylsulfoxide (DMSO), bovine skin gelatin (BSG), sodium butyrate and Tris(2-carboxyethyl)phosphine hydrochloride solution (TCEP) were purchased from Sigma-Aldrich at the highest level of purity possible. ^3H-SAM was purchase from American Radiolabeled Chemicals with a specific activity of 80 Ci/mmol. 384-well streptavidin Flashplates were purchased from PerkinElmer.
Substrates. Peptide representative of human histone H3 residues 16-30 was synthesized with an N-terminal linker-affinity tag motif and a C-terminal amide cap by 21st Century Biochemicals. The peptide was purified by high-performance liquid chromatography (HPLC) to greater than 95% purity and confirmed by liquid chromatography mass spectrometry (LC-MS). The sequence was Biot-Ahx-[…]-amide and contained a monomethylated arginine at position 26 (SEQ ID NO.: 14).
Molecular Biology: Human CARM1 (PRMT4) (NM_199141.1) transcript clone was amplified from an HEK 293 cDNA library, incorporating a flanking 5′ sequence encoding a FLAG tag ([…]) (SEQ ID NO.:6) fused directly to Ala 2 of CARM1 and 3′ sequence encoding a hexa His sequence ([…]) (SEQ ID NO.: 15) fused directly to Ser 608. The gene sequence encoding isoform1 containing a deletion of amino acids 539-561 was amplified subsequently and subcloned into pFastBacMam (Viva Biotech).
Protein Expression. Recombinant baculovirus were generated according to Bac-to-Bac kit instructions (Life Technologies). […] Infections were carried out at 37° C. for 48 hours, harvested by centrifugation, and stored at −80° C. for purification.
Protein Purification. […] Column was washed with 500 mM NaCl in buffer A and Flag-CARM1-His was eluted with 200 ug/ml FLAG peptide in buffer A. Pooled fractions were dialyzed in 20 mM Tris, 150 mM NaCl, 5% glycerol and 1 mM DTT, pH 7.8. The purity of recovered protein was 94.
General Procedure for CARM1 Enzyme Assays on Peptide Substrates. The assays were all performed in a buffer consisting of 20 mM Bicine (pH=7.6), 1 mM TCEP, 0.005% BSG, and 0.002% Tween 20, prepared on the day of use. Compounds in 100% DMSO (1 ul) were spotted into a polypropylene 384-well V-bottom plates (Greiner) using a Platemate Plus outfitted with a 384-channel head (Thermo Scientific). DMSO (1 ul) was added to Columns 11, 12, 23, 24, rows A-H for the maximum signal control and 1 ul of SAH, a known product and inhibitor of CARM1, was added to columns 11, 12, 23, 24, rows I-P for the minimum signal control. A cocktail (40 ul) containing the CARM1 enzyme was added by Multidrop Combi (Thermo-Fisher). The compounds were allowed to incubate with CARM1 for 30 min at room temperature, then a cocktail (10 ul) containing ^3H-SAM and peptide was added to initiate the reaction (final volume=51 ul). The final concentrations of the components were as follows: CARM1 was 0.25 nM, ^3H-SAM was 30 nM, peptide was 250 nM, SAH in the minimum signal control wells was 1 mM, and the DMSO concentration was 2%. The assays were stopped by the addition of non-radiolabeled SAM (10 ul) to a final concentration of 300 uM, which dilutes the ^3H-SAM to a level where its incorporation into the peptide substrate is no longer detectable. 50 ul of the reaction in the 384-well polypropylene plate was then transferred to a 384-well Flashplate and the biotinylated peptides were allowed to bind to the streptavidin surface for at least 1 hour before being washed once with 0.1% Tween20 in a Biotek EL×405 plate washer. The plates were then read in a PerkinElmer TopCount plate reader to measure the quantity of ^3H-labeled peptide bound to the Flashplate surface, measured as disintegrations per minute (dpm) or alternatively, referred to as counts per minute (cpm).
Where dpm=disintegrations per minute, cmpd=signal in assay well, and min and max are the respective minimum and maximum signal controls. […]

[1] = PRMT4 IC50, biochemical evaluation, CARM1 (PRMT4), peptide substrate
[2] = PRMT4 biochemical evaluation (numerical), single experiment or average of multiple experiments

SMILES | IC50 [1] [µM] | IC50 [2] [µM]
CNCCN(C)Cc1n[nH]c2ccc(OC3CCCCC3)cc12 [Compound 18] | 0.101 to 1 | 
CNCCN(C)Cc1n[nH]c2ccc(OCc3ccn(C)n3)cc12 [Compound 20] |  | 0.153
CNCCN(C)Cc1n[nH]c2ccc(Oc3cccc(OC)c3)cc12 [Compound 22] | 0.101 to 1 | 
CNCCN(C)Cc1n[nH]c2ccc(OCc3ccc(C(C)=O)cc3)cc12 [Compound 23] | 0.101 to 1 | 
CNCCN(C)Cc1n[nH]c2ccc(Oc3ccccc3OC)cc12 [Compound 24] | < 0.1 | 0.115
CNCCN(C)Cc1n[nH]c2ccc(OC3CCOC3)cc12 (centres unmarked) [Compound 25, N^1,N^2-dimethyl-N^1-((5-((tetrahydrofuran-3-yl)oxy)-1H-indazol-3-yl)methyl)ethane-1,2-diamine] | 0.101 to 1 | 0.932
CNCCN(C)Cc1n[nH]c2ccc(Oc3cccc(C)c3)cc12 [Compound 26] | 0.101 to 1 | 0.0351
CNCCN(C)Cc1n[nH]c2ccc(Oc3cccc(Cl)c3)cc12 [Compound 27, N^1-((5-(3-chlorophenoxy)-1H-indazol-3-yl)methyl)-N^1,N^2-dimethylethane-1,2-diamine] | 0.101 to 1 | 0.39
CNCCN(C)Cc1n[nH]c2ccc(Oc3cccc(C#N)c3)cc12 [Compound 28] | 1.01 to 3 | 0.26
CNCCN(C)Cc1n[nH]c2ccc(OC3CCOCC3)cc12 [Compound 29, N^1,N^2-dimethyl-N^1-((5-((tetrahydro-2H-pyran-4-yl)oxy)-1H-indazol-3-yl)methyl)ethane-1,2-diamine] | 0.101 to 1 | 0.446
CNCCN(C)Cc1n[nH]c2ccc(Oc3ccccc3Cl)cc12 [Compound 30] | 0.101 to 1 | 2.34
CNCCN(C)Cc1n[nH]c2cccc(OCCC(C)C)c12 [Compound 31] |  | 0.423
CNCCN(C)Cc1nn(C)c2ccc(OCc3ccc(C#N)cc3)cc12 [Compound 32] | 0.101 to 1 | 0.188
CNCCN(C)Cc1c2cc(OCc3ccc(C#N)cc3)ccc2nn1C(C)C [Compound 34] | 3.01 to 10 | 0.31
CNCCN(C)Cc1n[nH]c2ccc(OC)cc12 [Compound 35] | 3.01 to 10 | 
CNCCN(C)Cc1n[nH]c2ccc(O)cc12 [Compound 36, 3-((methyl(2-(methylamino)ethyl)amino)methyl)-1H-indazol-5-ol] | 3.01 to 10 | 6.13
CNCCN(C)Cc1n[nH]c2ccc(Oc3ccc(C#N)cc3)cc12 [Compound 37] | 1.01 to 3 | > 10
CNCCN(C)Cc1nn(C2CCN(C(C)=O)CC2)c2ccc(OCc3ccc(C#N)cc3)cc12 [Compound 38] | 1.01 to 3 | > 10
CNCCN(C)Cc1n[nH]c2ccc(Oc3ccc(C(F)(F)F)cc3)cc12 [Compound 39] | 0.101 to 1 | 2.88
CNCCN(C)Cc1n[nH]c2cccc(OCCC(O)CO)c12 (centres unmarked) [Compound 40] | 3.01 to 10 | 2.11

SMILES | IC50 [1] [µM] | IC50 [2] [µM]
CNCCN(C)Cc1n[nH]c2cccc(OCCCC(O)CO)c12 (centres unmarked) [Compound 41, 5-((3-((methyl(2-(methylamino)ethyl)amino)methyl)-1H-indazol-4-yl)oxy)pentane-1,2-diol] | 1.01 to 3 | 0.24
CNCCN(C)Cc1n[nH]c2ccc(C(C)C)cc12 [Compound 42, N^1-((5-isopropyl-1H-indazol-3-yl)methyl)-N^1,N^2-dimethylethane-1,2-diamine] | 1.01 to 3 | 4.05
CNCCN(C)Cc1n[nH]c2ccc(N3CCC4(CCCCC4)CC3)cc12 [Compound 43, N^1-((5-(3-azaspiro[5.5]undecan-3-yl)-1H-indazol-3-yl)methyl)-N^1,N^2-dimethylethane-1,2-diamine] | 0.101 to 1 | 1.78
CNCCN(C)Cc1n[nH]c2ccc(C3CCOCC3)cc12 [Compound 44, N^1,N^2-dimethyl-N^1-((5-(tetrahydro-2H-pyran-4-yl)-1H-indazol-3-yl)methyl)ethane-1,2-diamine] | 0.101 to 1 | 1.01
CNCCN(C)Cc1n[nH]c2ccc(C3=CCOCC3)cc12 [Compound 45] | 0.101 to 1 | 0.16
CNCCN(C)Cc1n[nH]c2ccc(N3CCCCC3)cc12 [Compound 46, N^1,N^2-dimethyl-N^1-((5-(piperidin-1-yl)-1H-indazol-3-yl)methyl)ethane-1,2-diamine] | 0.101 to 1 | 0.259
CNCCN(C)Cc1n[nH]c2ccc(C3CCCCC3)cc12 [Compound 47, N^1-((5-cyclohexyl-1H-indazol-3-yl)methyl)-N^1,N^2-dimethylethane-1,2-diamine] | 0.101 to 1 | 0.37
CNCCN(C)Cc1n[nH]c2ccc(C3=CCCCC3)cc12 [Compound 48] | 0.101 to 1 | 0.44
CNCCN(C)Cc1n[nH]c2ccc(Oc3ccccc3C(F)(F)F)cc12 [Compound 49] | 3.01 to 10 | 0.606
CNCCN(C)Cc1n[nH]c2ccc(OCC3CCOCC3)cc12 [Compound 50] | 3.01 to 10 | 0.245
CNCCN(C)Cc1n[nH]c2ccc(OCC3CCN(C(C)=O)CC3)cc12 [Compound 51] | 3.01 to 10 | > 10
CNCCN(C)Cc1n[nH]c2ccc(OCC3CCCC3)cc12 [Compound 52] | 3.01 to 10 | > 10
CNCCN(C)Cc1c2cc(OCc3ccc(C#N)cc3)ccc2nn1C1CCOCC1 [Compound 53] | 3.01 to 10 | > 10
CNCCN(C)Cc1n[nH]c2ccc(OCC3CCCCC3)cc12 [Compound 54] | 3.01 to 10 | > 10
CNCCN(C)Cc1n[nH]c2ccc(Oc3ccc(C)cc3)cc12 [Compound 55] | 0.101 to 1 | > 10
CNCCN(C)Cc1n[nH]c2ccc(Oc3ccccc3OC(C)C)cc12 [Compound 56] | 0.101 to 1 | > 10
CNCCN(C)Cc1n[nH]c2ccc(Oc3ccc(Cl)cc3)cc12 [Compound 57] | 0.101 to 1 | 0.333
CNCCN(C)Cc1n[nH]c2ccc(OC3CCN(C(C)=O)CC3)cc12 [Compound 58, 1-(4-((3-((methyl(2-(methylamino)ethyl)amino)methyl)-1H-indazol-5-yl)oxy)piperidin-1-yl)ethan-1-one] | 1.01 to 3 | 0.248
CNCCN(C)Cc1n[nH]c2ccc(Oc3ccc(OC)cc3)cc12 [Compound 59] | < 0.1 | 0.313
CNCCN(C)Cc1n[nH]c2ccc(Oc3ccccc3C)cc12 [Compound 60] | 0.101 to 1 | 1.77
